Data on 16 compounds can be found in patent publication US9365522B2, “Pyrazole amide derivative” (AMGEN INC., priority 2015, dated 2016).

Some results are limits rather than exact numbers.

The target of this test is T1, ligand binding domain of human ROR gamma (Homo sapiens, UniProt P51449).
T1 construct: NM_001001523; expressed in transfected cells; host or cells: HEK293T
T1 sequence (P51449 247-497 isoform P51449-2): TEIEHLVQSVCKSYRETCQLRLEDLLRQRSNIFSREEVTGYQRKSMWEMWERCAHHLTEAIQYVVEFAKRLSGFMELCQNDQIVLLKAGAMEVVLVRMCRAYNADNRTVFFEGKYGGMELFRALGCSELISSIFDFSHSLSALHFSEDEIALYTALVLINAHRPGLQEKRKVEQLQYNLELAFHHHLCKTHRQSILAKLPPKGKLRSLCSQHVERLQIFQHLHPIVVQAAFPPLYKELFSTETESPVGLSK
The test can be described thus: ROR gamma reporter gene assay (GAL4-RORγ LBD luciferase, Dual-Glo). The class given is cell-based. The settings on record: HEK293T cells transfected with pM-ROR gamma, 8 concentrations 3.5 nM to 10.5 μM, 24 h incubation; read-out: result (pIC50, inhibition of RORγ transcriptional activity) (converted). Summed up:
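Transient GAL4-RORγ LBD (aa 247-497) / 5×UAS-luc / pRL-CMV cotransfection in HEK293T, charcoal-stripped 10% FBS. 8-pt dose, 3.5 nM–10.5 μM, 0.075% DMSO final. 24 h, 37 °C, 5% CO2. Dual-Glo firefly/renilla readout; pIC50 from curve fit.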
Take `Cc1cc(Cl)c(C(=O)CN(Cc2cc(F)cc(F)c2)C(=O)c2cnn([C@H]3CC[C@H](C(=O)O)CC3)c2C(F)(F)F)c(Cl)c1` [Example 137, trans-4-(4-((2-(2,6-dichloro-4-methylphenyl)-2-oxoethyl)-((3,5-difluorophenyl)methyl)carbamoyl)-5-(trifluoromethyl)pyrazol-1-yl)cyclohexane-1-carboxylic acid]: the IC50 is 4790 pM. On to `C[C@]1(C(=O)O)CC[C@H](n2ncc(C(=O)N(Cc3cc(F)cc(F)c3)C[C@H](F)c3c(Cl)cccc3Cl)c2C(F)(F)F)CC1` [Example 138, trans-4-(4-(((2R)-2-(2,6-dichlorophenyl)-2-fluoroethyl)-((3,5-difluorophenyl)methyl)carbamoyl)-5-(trifluoromethyl)pyrazol-1-yl)-1-methylcyclohexane-1-carboxylic acid], for which the IC50 is 7240 pM.

Take `C[C@]1(C(=O)O)CC[C@H](n2ncc(C(=O)N(Cc3cc(F)cc(F)c3)C[C@@H](F)c3c(Cl)cccc3Cl)c2C(F)(F)F)CC1` [Example 139, trans-4-(4-(((2S)-2-(2,6-dichlorophenyl)-2-fluoroethyl)-((3,5-difluorophenyl)methyl)carbamoyl)-5-(trifluoromethyl)pyrazol-1-yl)-1-methylcyclohexane-1-carboxylic acid]: the IC50 is 17400 pM. On to `CC(C)(C)CC1CC(CN(CC(=O)c2c(Cl)cncc2Cl)C(=O)c2cnn([C@H]3CC[C@H](C(=O)O)CC3)c2C(F)(F)F)C1` (stereo partly drawn) [Example 140, trans-4-(4-((2-(3,5-dichloropyridin-4-yl)-2-oxoethyl)-((3-(2,2-dimethylpropyl)cyclobutyl)methyl)carbamoyl)-5-(trifluoromethyl)pyrazol-1-yl)cyclohexane-1-carboxylic acid], for which the IC50 was 200000 pM. Consider `Nc1ccccc1C(=O)CN(Cc1cc(F)cc(F)c1)C(=O)c1cnn([C@H]2CC[C@H](C(=O)O)CC2)c1C(F)(F)F` [Example 142, trans-4-(4-((2-(2-aminophenyl)-2-oxoethyl)-((3,5-difluorophenyl)methyl)carbamoyl)-5-(trifluoromethyl)pyrazol-1-yl)cyclohexane-1-carboxylic acid], for which the IC50 was 6.61e+06 pM. Regarding `Cc1ccc(N)c(C(=O)CN(Cc2cc(F)cc(F)c2)C(=O)c2cnn([C@H]3CC[C@H](C(=O)O)CC3)c2C(F)(F)F)c1` [Example 143, trans-4-(4-((2-(2-amino-5-methylphenyl)-2-oxoethyl)-((3,5-difluorophenyl)methyl)carbamoyl)-5-(trifluoromethyl)pyrazol-1-yl)cyclohexane-1-carboxylic acid], the IC50 was 2.24e+06 pM. The figure for `CC(C)(C)OCCN(CC(=O)c1c(Cl)cc(C(F)(F)F)cc1Cl)C(=O)c1cnn([C@H]2CC[C@H](C(=O)O)CC2)c1C(F)(F)F` [Example 144, trans-4-(4-((2-(2,6-dichloro-4-(trifluoromethyl)phenyl)-2-oxoethyl)-(2-((2-methylpropan-2-yl)oxy)ethyl)carbamoyl)-5-(trifluoromethyl)pyrazol-1-yl)cyclohexane-1-carboxylic acid] is 87100 pM; for `O=C(CN(Cc1cncnc1)C(=O)c1cnn([C@H]2CC[C@H](C(=O)O)CC2)c1C(F)(F)F)c1c(Cl)cccc1Cl` [Example 146, trans-4-(4-((2-(2,6-dichlorophenyl)-2-oxoethyl)-(pyrimidin-5-ylmethyl)carbamoyl)-5-(trifluoromethyl)pyrazol-1-yl)cyclohexane-1-carboxylic acid] it is 148000 pM; for `O=C(CN(Cc1ccccc1O)C(=O)c1cnn([C@H]2CC[C@H](C(=O)O)CC2)c1C(F)(F)F)c1c(Cl)cncc1Cl` [Example 147, trans-4-(4-((2-(3,5-dichloropyridin-4-yl)-2-oxoethyl)-((2-hydroxyphenyl)methyl)carbamoyl)-5-(trifluoromethyl)pyrazol-1-yl)cyclohexane-1-carboxylic acid] it is 347000 pM. For the compound `CC(C)(C)c1c(C(=O)N(CC(=O)c2c(Cl)cncc2Cl)Cc2cc(F)cc(F)c2)cnn1[C@H]1CC[C@H](C(=O)O)CC1` [Example 148, trans-4-(5-tert-butyl-4-((2-(3,5-dichloropyridin-4-yl)-2-oxoethyl)-((3,5-difluorophenyl)methyl)carbamoyl)pyrazol-1-yl)cyclohexane-1-carboxylic acid], the IC50 is 479000 pM. On to `CC(C)(C)OCCN(CC(=O)c1c(Cl)cc(C(F)(F)F)cc1Cl)C(=O)c1cnn([C@H]2CC[C@](C)(C(=O)O)CC2)c1C(F)(F)F` [Example 149, trans-4-(4-((2-(2,6-dichloro-4-(trifluoromethyl)phenyl)-2-oxoethyl)-(2-((2-methylpropan-2-yl)oxy)ethyl)carbamoyl)-5-(trifluoromethyl)pyrazol-1-yl)-1-methylcyclohexane-1-carboxylic acid], for which the IC50 was 60300 pM. Turning to `O=C(CN(CC1(C(F)(F)F)CC1)C(=O)c1cnn([C@H]2CC[C@H](C(=O)O)CC2)c1C(F)(F)F)c1c(Cl)cncc1Cl` [Example 150, trans-4-(4-((2-(3,5-dichloropyridin-4-yl)-2-oxoethyl)-((1-(trifluoromethyl)cyclopropyl)methyl)carbamoyl)-5-(trifluoromethyl)pyrazol-1-yl)cyclohexane-1-carboxylic acid], the IC50 was 53700 pM. For the compound `O=C(CN(Cc1ccnnc1)C(=O)c1cnn([C@H]2CC[C@H](C(=O)O)CC2)c1C(F)(F)F)c1c(Cl)cccc1Cl` [Example 151, trans-4-(4-((2-(2,6-dichlorophenyl)-2-oxoethyl)-(pyridazin-4-ylmethyl)carbamoyl)-5-(trifluoromethyl)pyrazol-1-yl)cyclohexane-1-carboxylic acid], the IC50 is 8.13e+06 pM. As to `O=C(CN(Cc1cc(F)cc(F)c1)C(=O)c1cnn([C@H]2CC[C@H](C(=O)O)CC2)c1C(F)(F)F)c1ncc(C(F)(F)F)cc1Cl` [Example 152, trans-4-(4-((2-(3-chloro-5-(trifluoromethyl)pyridin-2-yl)-2-oxoethyl)-((3,5-difluorophenyl)methyl)carbamoyl)-5-(trifluoromethyl)pyrazol-1-yl)cyclohexane-1-carboxylic acid], the IC50 was 2.82e+06 pM. Take `O=C(CN(Cc1cccc(O)c1)C(=O)c1cnn([C@H]2CC[C@H](C(=O)O)CC2)c1C(F)(F)F)c1c(Cl)cncc1Cl` [Example 153, trans-4-(4-((2-(3,5-dichloropyridin-4-yl)-2-oxoethyl)-((3-hydroxyphenyl)methyl)carbamoyl)-5-(trifluoromethyl)pyrazol-1-yl)cyclohexane-1-carboxylic acid]: the IC50 is 209000 pM. Then `CN1CCC(CN(CC(=O)c2c(Cl)cncc2Cl)C(=O)c2cnn([C@H]3CC[C@H](C(=O)O)CC3)c2C(F)(F)F)CC1` [Example 154, trans-4-(4-((2-(3,5-dichloropyridin-4-yl)-2-oxoethyl)-((1-methylpiperidin-4-yl)methyl)carbamoyl)-5-(trifluoromethyl)pyrazol-1-yl)cyclohexane-1-carboxylic acid], with greater than 1e+07 pM.
